Results taken from publication PMC6332004, “Transport of Twelve Coumarins from Angelicae Pubescentis Radix across a MDCK-pHaMDR Cell Monolayer—An in Vitro Model for Blood-Brain Barrier Permeability” (Molecules, 2015).
Where two headings read alike, the source gives them in different places.

Assays:
in vitro = conditions: dog, MDCK-MDR1, pH 7.4
Protocol: (§1) 10 mM stock solutions of test compounds were prepared in DMSO and diluted with HBSS to the desired concentrations before transport experiments. HBSS (pH 7.4) was used as a transport medium. After washing the MDCK-pHaMDR cell monolayer twice with prewarmed HBSS medium, HBSS medium was preserved to prepare samples of the calibration curves. Then the experiments were carried out by replacing the transport medium in the AP side (0.5 mL, for absorption transport) or BL side (1.5 mL, for efflux transport) with test compounds (50 µM). The plates were shaked at 55 rpm for 90 min at 37 °C in a water bath. Samples were collected from both sides of the cell monolayer, then immediately frozen, lyophilized and preserved below −20 °C. To measure the intracellular accumulation amounts of different coumarins, the cell monolayers were extracted after transport assays with 200 µL 70% MeOH (v/v) for 20 min, then centrifuged and preserved below −20 °C.
(§2) An Agilent 1100 series HPLC system (Agilent Technologies, Palo Alto, CA, USA) was used with an analytical Diamonsil® C18 column (250 mm × 4.6 mm, 5 µm, Dikma, Beijing, China) equipped with a C18 guard column (8 mm × 4 mm, 5 µm, Dikma). […] The flow rate was 1.0 mL/min. Elution peaks were monitored and the peak areas were used to calculate the compound concentrations.
(§3) Papp in AP-BL or BL-AP direction of each coumarin was calculated from the following equation: (2) Papp=dQ/dt·A·C0 [cm/s] where Q is the accumulation quantity of the compound in the receiver side (μmol), dQ/dt is the linear appearance rate of the compound in the receiver side (μmol/s), C0 is the initial concentration in the donor side (μM), and A is the surface area of the membrane insert (cm^2). Data were expressed as the mean ± SD.

[1] = Cell accumulation and total recovery of coumarins in the bidirectional transport experiment; conditions: dog
Protocol: as §1
(§4) To determine the corresponding coumarins, the lyophilized permeation samples were dissolved in a suitable volume of MeOH, thoroughly vortex-mixed for 1 min and then centrifuged at 16,000× g for 20 min. An aliquot of 20 µL supernatant solution was used for HPLC assay. To measure the intracellular accumulation amount of different coumarins, the aliquots of cell extractions were determined too.
(§5) CA (Cell accumulation): the percent of the coumarins that accumulated in the cell monolayer after transport
(§6) experiment relative to the initial amount. TR (Total recovery): the percent of the total amount of the coumarins
(§7) recovered from both sides of the inserts and intracellular accumulation in MDCK-pHaMDR cell monolayer
(§8) relative to the initial amount. N.D.: not detected. The concentration of all coumarins was 50 µM.
(§9) incubation time was up to 90 min. Data are means ± S.D. (n = 6).

P-gp [2] = test: Rh123 intracellular accumulation in MDCK-pHaMDR cells with or without verapamil; assay type: cell-based; conditions: Rh123 10 µM
Protocol: The fluorescence at 485 nm (excitation wavelength) and 538 nm (emission wavelength) was determined on a Cary Eclipse Fluorescence spectrophotometer (Varian Inc., Palo Alto, CA, USA). To investigate intracellular accumulations of Rh123 as a probe substrate for P-gp, MDCK-pHaMDR cells were seeded on the 6 Wells plates at a density of about 1.0 × 10^5 cells/mL and grew for 48 h. Before the uptake experiments, cells were washed with PBS two times and pre-incubated with serum-free DMEM or 100 µM verapamil for 20 min. Rh123 with the final concentration of 10 µM was added, and cells were incubated with or without the presence of verapamil for 60 min at 37 °C. Then cells were washed with ice-cold PBS three times, and lysed with 0.1% (v/v) Triton X-100 for 15 min at 37 °C [33]. The fluorescence of Rh123 in cell lysates was determined as described above.

P-gp [3] = test: in vitro; conditions: dog, not told
Protocol: The P-gp expression level in the MDCK-pHaMDR cell monolayer was examined by Rh123 transport and intracellular accumulation experiments. Rh123 (10 µM) bidirectional transports with or without the presence of verapamil (100 µM) were undertaken as described above, and the lyophilized permeation samples were dissolved in a proper volume of MeOH. The fluorescence at 485 nm (excitation wavelength) and 538 nm (emission wavelength) was determined on a Cary Eclipse Fluorescence spectrophotometer (Varian Inc., Palo Alto, CA, USA).

[4] = system: MDCK-pHaMDR cell monolayer; test: Cell accumulation and total recovery of coumarins in the bidirectional transport experiment; conditions: 50 µM, 90 min, percent of initial amount, n = 6
Protocol: as §1, §4, §5, §6, §7, §8, §9

[5] = system: MDCK-pHaMDR cell monolayer; conditions: dog, 90 min, 50 µM, pH 7.4
Protocol: as §1, §4, §5, §6, §7, §8, §9

[6] = system: MDCK-pHaMDR cell monolayer; test: Bidirectional transport across MDCK-pHaMDR cell monolayer (in vitro BBB model); conditions: AP to BL; coumarins 50 µM, caffeine 10 µM, atenolol 200 µM; 90 min; mean ± S.D., n = 6
Protocol: as §1, §2, §3

[7] = MDCK-pHaMDR cell monolayer, pH 7.4, TR (Total recovery) AP→BL, AP→BL, 50 µM, 90 min, percent of initial amount, n = 6
[8] = MDCK-pHaMDR cell monolayer, pH 7.4, TR (Total recovery) BL→AP, BL→AP, 50 µM, 90 min, percent of initial amount, n = 6

Compound	Papp A→B at 90 min (in vitro)	Papp B→A at 90 min, 50 µM (in vitro)	recovery at 90 min, 50 µM [1, 7]	recovery at 90 min, 50 µM [1, 8]	CA (Cell accumulation) AP→BL [4]	CA (Cell accumulation) BL→AP [4]	efflux ratio at 90 min, 50 µM (in vitro)	further results
O=c1ccc2ccc(O)cc2o1 [Compound 1, umbelliferone]	35.9 ± 2.28 ×10⁻⁶ cm/s	32.8 ± 1.25 ×10⁻⁶ cm/s	99.3 ± 1.59%	96.7 ± 3.22%	–	–	–	–
COC(=O)c1ccccc1-c1c2ccc(=N)cc-2oc2cc(N)ccc12 [Rh123, Rhodamine 123]	–	–	–	–	–	–	–	intracellular accumulation with verapamil relative to verapamil-absent group (P-gp [2]; 100 µM verapamil): 4.45 fold; Intracellular Accumulation Fluorescence Intensity (P-gp [2]; 60 min, without verapamil, n = 4): 34.51 ± 1.18; Papp A→B at 90 min, 10 µM (P-gp [3]; pH 7.4): 1.18 ± 0.056 ×10⁻⁶ cm/s; Papp B→A at 90 min, 10 µM (P-gp [3]; pH 7.4): 5.27 ± 0.209 ×10⁻⁶ cm/s; efflux ratio at 90 min, 10 µM (P-gp [3]; pH 7.4): 4.47 ± 0.24; efflux ratio at 90 min, 10 µM (P-gp [3]; pH 7.4, with verapamil 100 µM): 1.58
C/C=C(/C)C(=O)OC(C)(C)[C@@H]1Cc2c(ccc3ccc(=O)oc23)O1 [Compound 11, columbianadin]	10.4 ± 0.95 ×10⁻⁶ cm/s	7.12 ± 0.12 ×10⁻⁶ cm/s	67.6 ± 5%	64.1 ± 3.63%	21.49 ± 4.56%	9.44 ± 1.01%	–	recovery at 90 min, 50 µM ([1]; MDCK-pHaMDR cell monolayer, pH 7.4, recovery (both sides of the insert and intracellular), both directions): 64 to 68%
CC(C)=CCOc1c2ccoc2cc2oc(=O)ccc12 [Compound 10, isoimperatorin]	7.29 ± 0.17 ×10⁻⁶ cm/s	3.73 ± 0.33 ×10⁻⁶ cm/s	90.2 ± 3.08%	86.6 ± 2.89%	5.38 ± 1.14%	1.65 ± 0.36%	–	–
COc1cc2ccc(=O)oc2cc1O [Compound 3, scopoletin]	37.1 ± 1.97 ×10⁻⁶ cm/s	27.4 ± 3.51 ×10⁻⁶ cm/s	87.5 ± 3.3%	92.2 ± 3.16%	–	–	0.96	–
COc1ccc2ccc(=O)oc2c1CC=C(C)C [Compound 2, osthol]	23.8 ± 1.44 ×10⁻⁶ cm/s	20.4 ± 3.04 ×10⁻⁶ cm/s	105 ± 5.15%	95.6 ± 1.75%	–	–	–	CA (Cell accumulation) AP→BL [5]: 6.96 ± 1.50%; CA (Cell accumulation) BL→AP [5]: 3.51 ± 0.68%
O=c1ccc2cc3ccoc3cc2o1 [Compound 7, psoralen]	27.3 ± 2.35 ×10⁻⁶ cm/s	26.8 ± 2.75 ×10⁻⁶ cm/s	89.9 ± 6.49%	94.7 ± 3.85%	4.63 ± 0.13%	1.79 ± 0.03%	0.98	–
COc1c2ccoc2cc2oc(=O)ccc12 [Compound 9, bergapten]	43.6 ± 2.13 ×10⁻⁶ cm/s	37.4 ± 5.81 ×10⁻⁶ cm/s	99.15 ± 0.54%	107 ± 1.19%	–	–	0.86	–
Cn1c(=O)c2c(ncn2C)n(C)c1=O [caffeine, reference compound]	43.6 ×10⁻⁶ cm/s	–	–	–	–	–	–	Papp AP-BL [6]: 43.58 ± 4.86 ×10^−6 cm/s
COc1c2occc2cc2ccc(=O)oc12 [Compound 8, xanthotoxin]	–	–	–	–	–	–	–	recovery at 90 min, 50 µM ([1]; pH 7.4, TR (Total recovery) AP→BL, AP→BL, 50 µM, 90 min, percent of initial amount, n = 6): 95.2 ± 4.79%; recovery at 90 min, 50 µM ([1]; pH 7.4, TR (Total recovery) BL→AP, BL→AP, 50 µM, 90 min, percent of initial amount, n = 6): 88.7 ± 3.13%
